One assay deals with C3 convertases. Conditions: mice and dogs; cited from earlier work.
The subject of assay [1] is granulocytes and monocytes. It counts as cell-based, human. Conditions: CR2-CR1 10 nM, iptacopan 20 μM; for efficacy on uptake across donors, in words: liposomes and LNPs, five donors.
Another assay concerns blood leukocytes. Kind of assay: Blood leukocyte uptake of bolus-injected SPIO NWs in rats. In kind it is in vivo, Sprague-Dawley rats.
Assay [2] relates to C3. It counts as biochemical, human. The conditions noted are these: for inhibition of C3 opsonization of PLD, in words: two donors with top 10th percentile anti-PEG IgG/IgM, EGTA/Mg2+ 10 mM.
Assay [3] deals with granulocytes, monocytes, lymphocytes. Kind of assay: Blood leukocyte uptake of bolus-injected SPIO NWs in mice. It counts as in vivo, BALB/c mice.
The next assay has as its system Beagle dogs. Kind of assay: Blood pressure in anesthetized dogs after bolus injection of SPIO NWs. It counts as in vivo. Conditions: iptacopan IV 0.4285 mg/kg.
The test system of a further assay is Sprague-Dawley rats. Kind of assay: Rearing behavior of rats after bolus injection of SPIO NWs. It counts as in vivo.
In the next assay the test system is rat C3. Kind of assay: In vivo C3 opsonization of SPIO NWs in rats. Set-up: species or system Sprague-Dawley rats. Conditions: high dose iptacopan 0.99 mg/kg, 60 min postinjection.
The subject of another assay is dog C3. Kind of assay: In vivo C3 opsonization of SPIO NWs in dogs. The conditions noted are these: Beagle dogs; iptacopan 0.43 mg/kg IV; 30 min postinjection.
A further assay concerns C3d. Kind of assay: C3d deposition on PLD in plasma of donors with high anti-PEG titers. It counts as biochemical, human. The conditions noted are these: two donors with high anti-PEG titers; EDTA 10 mM; EGTA/Mg2+ 10 mM; sutimlimab 200 μg/ml; iptacopan 10 μM.
The next assay has as its system mouse C3. Kind of assay: In vivo C3 opsonization of SPIO NWs in mice. More on the design: species or system BALB/c mice. The conditions noted are these: IV iptacopan, 5 min after the injection.
A further assay deals with granulocytes. Kind of assay: Blood leukocyte uptake of bolus-injected SPIO NWs in dogs. The conditions noted are these: Beagle dogs; iptacopan 0.43 mg/kg IV coinjected with SPIO NWs 6.6 mg/kg; 30 and 60 min. It counts as in vivo.
Assay [4] concerns C3. Kind of assay: C3 opsonization of SPIO NWs in dog sera in vitro. In kind it is biochemical. Conditions: 10 μM, five breeds.
Assay [5] concerns C3. Kind of assay: C3 opsonization of SPIO NWs in rat serum in vitro. In kind it is biochemical, Sprague-Dawley rats. Conditions: 100 μM.
Assay [6] concerns C3. Kind of assay: C3 opsonization of SPIO NWs in mouse serum in vitro. In kind it is biochemical, BALB/c mice.
In another assay the test system is human C3 deposition. Kind of assay: C3 deposition on nanoparticles in human serum, C3 dot-blot immunoassay. The conditions noted are these: for IC50: read-out: C3, IC50, healthy donor serum. In kind it is biochemical.
The test system of the next assay is human C5a release. Kind of assay: C5a release in the fluid phase of human serum with nanoparticles, ELISA. In kind it is biochemical. Conditions: for inhibition of C5a release: 100 μM; for IC50: read-out: C5a, IC50.
For the next assay, the system named is C4d. Kind of assay: C4d deposition on PLD in plasma of donors with high anti-PEG titers. It counts as biochemical, human. Conditions: two donors with high anti-PEG titers; EGTA/Mg2+ 10 mM; sutimlimab 200 μg/ml.
The mark [7] stands for this setting: EDTA 10 mM, sutimlimab 200 μg/ml, iptacopan 10 μM.

“Also recorded” adds a separate entry of the source. Where two headings read alike, the source gives them in different places.

Turning to “CR1: human complement receptor 1 (soluble CR1 therapeutics)”, in the assay on C3 convertases, the “efficacy in animal species” value is “not effective”.
As to `CCO[C@H]1CCN(Cc2c(OC)cc(C)c3[nH]ccc23)[C@H](c2ccc(C(=O)O)cc2)C1` [Iptacopan, iptacopan], the “efficacy on uptake across donors, in words” value in assay [1] is listed as “effective in some donors”; in assay [1] (listed as iptacopan), “effective in three of five donors”. For the same molecule, in [1] (the one donor with measurable uptake), the “reduction of SPIO NWs uptake (number of magnetic cells)” value is recorded as ~ 60%. Moreover, the “inhibition of uptake by granulocytes” value in the assay with blood leukocytes (high-dose iptacopan 0.99 mg/kg, 60 min) is listed as “significant inhibition”. Further, the “uptake of SPIO NWs by blood leukocytes” value in the assay on blood leukocytes (iptacopan IV 0.21 mg/kg (low dose) and 0.99 mg/kg (high dose) with SPIO NWs 6.6 mg/kg, 60 min postinjection) is on record as “inhibited uptake”. In addition, the “inhibition of C3 opsonization of PLD, in words” value (shortened to “inhibition … of PLD, in words”) in the assay on C3 [2] (setting [7]) is given as “marginally effective”; with C3 [2] (EDTA 10 mM, sutimlimab 200 μg/ml, iptacopan 10 μM, listed as iptacopan), “minimal inhibition”. Besides, in assay [3] (IP before SPIO NWs), the “iptacopan administered intraperitoneally compared with IV” value is “equally effective”. Besides, in [3] (iptacopan with NWs 10 mg Fe/kg), the “inhibition of uptake of SPIO NWs by monocytes and lymphocytes” value was “partial inhibition”. Also, the “systolic and diastolic pressure after coinjection with SPIO NWs” value with Beagle dogs is on record as “prevents the drop in blood pressure; also recorded: restored”. Further, the “rearings after coinjection with NWs” value in the assay with Sprague-Dawley rats (low or high dose of iptacopan) is “significant increase in rearings; also recorded: significantly normalized rearing behavior”. Besides, in the assay with rat C3, the “rat C3 opsonization of NWs blocked” value is “more than 90%”. Also, the “dog C3 opsonization in the blood” value with dog C3 is reported as “significantly decreased”. In addition, in the assay on C3d, the “inhibition of C3d deposition on PLD, in words” value (shortened to “inhibition of C3d deposition”) is “only partial activity”. Also, in the assay on mouse C3, the “C3 opsonization of NWs retrieved from plasma” value is “significantly decreased”. Also, in the assay on granulocytes, the “number of magnetic granulocytes” value was “significantly reduced”. Moreover, the “inhibition of C3 opsonization in dog sera” value with C3 [4] was “significant inhibition”.
As to PMX53, the “rearing behavior after coinjection with NWs” value in the assay with Sprague-Dawley rats (PMX53 1 mg/kg IV, or 3 mg/kg IP + 1 mg/kg IV) is given as “did not restore; also recorded: not significantly increased”.
Turning to `CC(=O)c1nn(CC(=O)N2C[C@H](F)C[C@H]2C(=O)Nc2cccc(Br)n2)c2ccc(-c3cnc(C)nc3)cc12` [Danicopan, danicopan], in the assay on C3 [5], the “inhibition of C3” value is on record as “less than 50%”. Further, the “inhibition in mouse serum, in words” value in the assay on C3 [6] is “poor inhibition”. Further, the “inhibition of C3 deposition” value in the assay with human C3 deposition (PLD, inhibitor at 100 μM, human serum) is “less than 50%”. Moreover, the IC50 amounted to 10800 nM in the assay with human C3 deposition (CLIO NWs); 28100 nM with human C3 deposition (Onivyde); 417 nM with human C3 deposition (SPIO NWs); 6.93 nM with human C5a release (CLIO NWs, human serum); 2580 nM in the assay with human C5a release (Onivyde, human serum); 6.97 nM in the assay with human C5a release (SPIO NWs, human serum). The IC50 in the assay with human C5a release (mRNA LNPs, donor F38 (table line matched to Fig. 2C)) is 1290 nM; in the assay on human C5a release (mRNA LNPs, donor F46 (table line matched to Fig. 2C)), 7980 nM; in the assay on human C5a release (mRNA LNPs, donor M61 (table line matched to Fig. 2C)), 71.2 nM. The “inhibition of C5a release” value is given as “less than 60%” in the assay on human C5a release (mRNA LNPs, donor F46); “completely inhibited” with human C5a release (mRNA LNPs, donors F38 and M61). Also, the “C5a IC50, in words” value with human C5a release (mRNA LNPs, sera from three healthy donors) is “low micromolar”. For the same molecule, the “inhibition of C3 opsonization in dog sera” value in the assay with C3 [4] is listed as “considerably less effective”.
Take `O=C(O)CN(CCN(CC(=O)O)CC(=O)O)CC(=O)O` [EDTA]: the “C3 on PLD blocked, on average” value in the assay with C3 [2] (lepirudin plasma, 10 donors, CR2-CR1 10 nM, EDTA 10 mM) is about 67%. Besides, in the assay with C3 [2] (setting [7]), the “inhibition … of PLD, in words” value is listed as “only partially inhibited”. For the same molecule, in the assay with C3d, the “inhibition of C3d deposition” value is “full inhibition”.
For EGTA/Mg^2+, in the assay on C3 [2] (setting [7]), the “inhibition … of PLD, in words” value is “strong inhibition”. In the assay on C3d, the “inhibition of C3d deposition” value was “full inhibition”. In the assay with C4d, the “inhibition of C4d deposition on PLD, in words” value is given as “inhibited”.

B1: Sutimlimab: monoclonal antibody that binds C1s; classical pathway inhibitor (antibody, chains of the INN, looked up, V domains shown)
VH: EVQLVESGGGLVKPGGSLRLSCAASGFTFSNYAMSWVRQAPGKGLEWVATISSGGSHTYYLDSVKGRFTISRDNSKNTLYLQMNSLRAEDTALYYCARLFTGYAMDYWGQGTLVTVSS
VL: QIVLTQSPATLSLSPGERATMSCTASSSVSSSYLHWYQQKPGKAPKLWIYSTSNLASGVPSRFSGSGSGTDYTLTISSLQPEDFATYYCHQYYRLPPITFGQGTKLEIK
On to B1, for which the “inhibition of C3 deposition on PLD, in words” value in the assay on C3 [2] (lepirudin plasma, 10 donors, sutimlimab 200 μg/ml, iptacopan 10 μM) is given as “minimally effective”. In addition, the “inhibition … of PLD, in words” value with C3 [2] (setting [7]) is “marginal effectiveness; also recorded: minimal inhibition”. In addition, the “inhibition of C3d deposition” value in the assay with C3d was “only partial activity”. Also, the “inhibition of C4d deposition on PLD, in words” value with C4d was “does not inhibit”.

The record behind these values is article PMC12239973 (Science Advances, 2025).
